Molecular target: T1, Dihydrofolate reductase (Bacillus cereus (strain ATCC 14579 / DSM 31 / CCUG 7414 / JCM 2152 / NBRC 15305 / NCIMB 9373 / NCTC 2599 / NRRL B-3711), UniProt Q81E04)
T1 sequence (Q81E04 whole entry): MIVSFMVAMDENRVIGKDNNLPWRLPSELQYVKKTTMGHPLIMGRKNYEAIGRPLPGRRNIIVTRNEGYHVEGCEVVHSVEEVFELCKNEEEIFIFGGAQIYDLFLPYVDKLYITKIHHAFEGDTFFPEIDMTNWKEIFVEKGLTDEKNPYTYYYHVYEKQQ
Experiment: In Vitro Inhibition Assay
Conditions: pH 7; 25 °C
Protocol: Enzyme activity assays were performed by monitoring the rate of enzyme-dependent NADPH consumption at an absorbance of 340 nm over a period of several minutes. After an incubation period of 5 min in the presence or absence of the inhibitor, the reaction was initiated with the addition of dihydrofolate. The reactions were performed a minimum of four times to determine the average rate and 50% inhibitory concentration values.

Row | SMILES | IC50 [µM]
1 | CCOC(=O)CCCCOc1ccc(OC)c(Cc2cnc3nc(N)nc(N)c3c2C)c1 [ethyl 5-[3-({2,4-diamino-5-methylpyrido[2,3-d]pyrimidin-6-yl}methyl)-4-methoxyphenoxy]pentanoate] | 0.35
2 | COc1ccc(OCCCCCC(=O)O)cc1Cc1cnc2nc(N)nc(N)c2c1C [2,4-diamino-5-deazapteridine, 6] | 0.51
3 | COc1ccc(I)cc1Cc1cnc(N)nc1N [5-[(5-iodo-2-methoxyphenyl)methyl]pyrimidine-2,4-diamine] | 37.3
4 | CN(Cc1cnc2nc(N)nc(N)c2n1)c1ccc2cc(Cl)ccc2c1 [6-{[(6-chloronaphthalen-2-yl)(methyl)amino]methyl}pteridine-2,4-diamine] | 2.26
5 | COc1ccc(C#CCCCCC(=O)O)cc1Cc1cnc2nc(N)nc(N)c2c1C [2,4-diamino-5-deazapteridine, 2] | 0.27
6 | COc1ccc(C#CCCCC(=O)O)cc1Cc1cnc2nc(N)nc(N)c2c1C [6-[3-({2,4-diamino-5-methylpyrido[2,3-d]pyrimidin-6-yl}methyl)-4-methoxyphenyl]hex-5-ynoic acid] | 1.9
7 | Nc1nc(N)c2nc(CNc3ccc4cc(Cl)ccc4c3)cnc2n1 [6-{[(6-chloronaphthalen-2-yl)amino]methyl}pteridine-2,4-diamine] | 6.32
8 | Cc1nc2nc(N)nc(N)c2nc1CN(C)c1ccc2c(Cl)cc(Cl)cc2c1 [6-{[(5,7-dichloronaphthalen-2-yl)(methyl)amino]methyl}-7-methylpteridine-2,4-diamine] | > 1000
9 | COc1ccc(OCCCCC(=O)O)cc1Cc1cnc2nc(N)nc(N)c2c1C [2,4-diamino-5-deazapteridine, 5] | 1.67
10 | Nc1nc(N)c2nc(CN3c4ccccc4C=Cc4ccccc43)cnc2n1 [6-{2-azatricyclo[9.4.0.0^{3,8}]pentadeca-1(11),3(8),4,6,9,12,14-heptaen-2-ylmethyl}pteridine-2,4-diamine] | 16.7
11 | COc1ccc(C#CCCCCC(=O)O)cc1Cc1cnc(N)nc1N | 69.3
12 | Nc1nc(N)c2c(ccc3c4ccccc4ccc32)n1 [4,6-diazatetracyclo[8.8.0.0^{2,7}.0^{11,16}]octadeca-1(10),2,4,6,8,11(16),12,14,17-nonaene-3,5-diamine] | > 1000
13 | CCOC(=O)CCCCCOc1ccc(OC)c(Cc2cnc3nc(N)nc(N)c3c2C)c1 [ethyl 6-[3-({2,4-diamino-5-methylpyrido[2,3-d]pyrimidin-6-yl}methyl)-4-methoxyphenoxy]hexanoate] | 1.85
14 | CCOC(=O)CCCOc1ccc(OC)c(Cc2cnc3nc(N)nc(N)c3c2C)c1 [2,4-diamino-5-deazapteridine, 7] | 0.88
15 | COc1cc(CCc2c[nH]c3nc(N)nc(N)c23)cc(OC)c1OC [5-[2-(3,4,5-trimethoxyphenyl)ethyl]-7H-pyrrolo[2,3-d]pyrimidine-2,4-diamine] | 252
16 | CN(Cc1cnc2nc(N)nc(N)c2n1)c1ccc2c(Cl)cc(Cl)cc2c1 [6-{[(5,7-dichloronaphthalen-2-yl)(methyl)amino]methyl}pteridine-2,4-diamine] | 17.6
17 | Nc1nc(N)c2nc(CNc3ccc4cc(Cl)c(Cl)cc4c3)cnc2n1 [6-{[(6,7-dichloronaphthalen-2-yl)amino]methyl}pteridine-2,4-diamine] | 4.82
18 | COc1ccc(OCCCC(=O)O)cc1Cc1cnc2nc(N)nc(N)c2c1C [4-[3-({2,4-diamino-5-methylpyrido[2,3-d]pyrimidin-6-yl}methyl)-4-methoxyphenoxy]butanoic acid] | 0.6
19 | Nc1nc(N)c2nc(CNc3ccc4c(Cl)cc(Cl)cc4c3)cnc2n1 [6-{[(5,7-dichloronaphthalen-2-yl)amino]methyl}pteridine-2,4-diamine] | 7.58
20 | COc1cc(NCc2ccc3nc(N)nc(N)c3c2)c(Br)c(OC)c1OC [6-{[(2-bromo-3,4,5-trimethoxyphenyl)amino]methyl}quinazoline-2,4-diamine] | 1.1
21 | COc1ccc(CCCCCC(=O)O)cc1Cc1cnc(N)nc1N | 150

Source: BindingDB's records for doi:10.1128/AAC.00386-06 (University of Connecticut At Storrs, 2006)
